Results taken from patent US9023320B2, “Method of producing a composition, composition and its use” (GE Healthcare AS, priority 2004, dated 2015).

Legend:
[1] = DNP polarisation of 13C1-pyruvic acid, solid-state 13C-NMR DNP enhancement; assay type: physicochemical; settings: 20 mM Tris(8-carboxy-2,2,6,6-tetra(hydroxyethoxy)methyl-benzo[1,2-d:4,5-d']bis(1,3)dithiole-4-yl)methyl sodium salt; 1.2 K, 3.35 T, 93.950 GHz; from thermal equilibrium and enhanced NMR signal
Description: A 20 mM solution was prepared by dissolving Tris(8-carboxy-2,2,6,6-tetra(hydroxyethoxy)methyl-benzo[1,2-d:4,5-d′]-bis-(1,3)-dithiole-4-yl)methyl sodium salt in ^13C1-pyruvic acid (83.1 mg). The sample was mixed to homogeneity, placed in a sample cup and inserted in the DNP polariser. The sample was polarised under DNP conditions at 1.2 K in a 3.35 T magnetic field under irradiation with microwave (93.950 GHz). The ^13C-NMR signal from the sample was acquired using a Varian Inova-200 NMR spectrometer. The DNP enhancement was calculated from a measurement of the thermal equilibrium ^13C-NMR signal and the enhanced NMR signal. 16% ^13C polarisation was obtained.

[2] = test system: R3230AC rat mammary adenocarcinoma; test: Tumour imaging using hyperpolarised 13C-pyruvate as imaging agent (13C-MR imaging of tumour-bearing rats); assay type: in vivo
Description: R3230AC is a rat mammary adenocarcinoma that can be maintained in female Fischer 344 rats. To establish the animal tumour model, a frozen vial of R32030 cells containing RPMI 1640, 10% FBS and 10% DMSO was rapidly thawed in 37° C. Thereafter, the cell solution was transferred to FBS and increasing volumes of RPMI 1640 were added. Finally, the cell suspension was transferred to a 25 cm^2growth flask and put into an incubator at 37° C., 5% CO2. Growth media were changed every other day. At the day of rat infection, removal of cells was carried out either by mechanical force or by means of trypsin. Cells were washed using phosphate buffer lacking calcium and magnesium. Trypsin (0.05% trypsin in 0.02% EDTA) was added for 2-5 min. Then, 5 ml FBS was added and the cells were transferred into a beaker containing RPMI 1640 with FCS and antibiotics (100 IU/ml penicillin, 100 IU/ml streptomycin and 2.5 µg/ml amphotericin […]). The cell solution was centrifugated and the cell pellet was resuspended in 20 ml RPMI with FBS and antibiotics, centrifugation and resuspension was repeated. The cells were then aliquoted to vials containing 4×10^6 cells/ml RPMI 1640. To obtain donor tumours, female Fischer 344 rats (Charles River, 180-200 g) were anaesthetised and 0.3 ml of the cell suspension was subcutaneously injected in the inguinal region on both sides. 15 and 22 days later, pieces of tumour were prepared as described in F. A. Burgener et al., Invest Radiol 2216 (1987), 472-478; S. Saini et al., J. Magn. Reson, 129/1 (1997), 35-43). Two incisions were made on the ventral abdomen of recipient female Fischer rats. A tumour piece was inserted into each pocket and the incisions were closed. Rats were brought to imaging 12-14 days after tumour engrafting.
Weighed rats were anaesthetised using isoflurane (2-3%) and kept on a heated table to ensure a body temperature of about 37° C. A catheter was introduced into the tail vein and into the arteria carotis communis sinistra. The rats were transported to the MR machine and placed on a home-built pad that was heated to approx. 37° C. by means of circulating FC-104 Fluorinert. This liquid will not give rise to background signals in ^1H- and ^13C-MR imaging. Anaesthesia was continued by means of 1-2% isoflurane delivered via a long tube to an open-breathing system at a rate of 0.4 L/min. The arterial catheter was connected via a T-tube to a pressure recorder and a pump delivering saline (rate […]) to prevent catheter clotting. Rats were positioned in a rat MR coil (Rapid Biomedical, Germany) and imaging using a standard proton MR imaging sequence to get anatomical information and to determine the location of the tumour.
Based on the proton frequency found by the MR system the MR frequency for ^13C1-alanine was calculated according to the following equation: Frequency ^13C1-alanine=0.25144×[(system frequency proton×1.00021)−0.000397708]
The frequency calculated positioned the MR signal arising from ^13C1-alanine on resonance with ^13C1-lactate on the left and ^13C1-pyruvate resonating on the right of ^13C1-alanine. An unlocalised MR spectroscopy sequence was run to ensure that the ^13C-MR coil and the system MR frequency had been set up correctly. The ^13C-image location was positioned to cover the tumour (slice thickness 10 mm, in plane pixel size 5×5 mm^2). In the reconstruction phase, the image data was zero-filled to result in 2.5×2.5×10 mm^3 resolution. ^13C1-pyruvate in TRIS buffer (90 mM) was injected in a dose of 10 ml/kg during a period of 12 s with a minimum volume of 2 ml into the tail vein and 30 s after the start of the injection (i.e. 18 s after finishing the injection), the chemical shift ^13C-MR sequence was started. 5.4 Analysis of the MR Imaging Data
In the reconstruction phase, the matrix was zero-filled to 32×32, a mathematical operation that helps to improve the spatial resolution. […]

[3] = rat, R3230AC tumours, 90 mM in TRIS, 10 ml/kg i.v. tail vein, imaging 30 s after start of injection

Compound: CC(=O)[13C](=O)O [^13C1-pyruvic acid]
- 13C polarisation [1]: 16%

Compound: CC(=O)[13C](=O)[O-].[Na+] [^13C1-pyruvate, sodium ^13C1-pyruvate]
- overall rate of success ([2]; discrimination of tumour and healthy tissue, 26 tumours in 17 rats): 100%
- pH ([2]; injected solution, mean ±SD): 8.08±0.14
- average polarisation at the time of injection ([2]; mean ±SD, solution in TRIS buffer injected into rats): 21.2±2.9%
- metabolic contrast in the tumour area, lactate signal [2, 3]: 24 out of 26
- metabolic contrast in the tumour area, lactate signal, alanine corrected [2, 3]: 26 out of 26
- metabolic contrast in the tumour area, lactate signal, pyruvate corrected [2, 3]: 26 out of 26
